In US20100068211A1, “USE OF ANTIRESORPTIVE COMPOUNDS TO PREVENT IONIZING RADIATION-INDUCED ACTIVATION OF OSTEOCLASTS AND RESULTING BONE LOSS” (priority 2008, published 2010):
Marks after values point to notes of the source that are not given here.

Assays:
female C57BL/6 mice = experiment: Risedronate treatment of radiation-induced bone loss in mice, microCT (Example 4); format: in vivo; settings: 2 Gy whole body X-rays
TRAP5b = experiment: Serum TRAP5b ELISA, irradiated mice treated with risedronate (Example 4b); format: in vivo; settings: 2 Gy irradiated mice, risedronate 30 μg/kg every other day, 7, 14 and 21 days
Protocol: (§1) Tissue collection: 12 individuals from each group were sacrificed at 1, 2, and 3 weeks following the initial radiation exposure. Each mouse weighed then anesthetized using isoflurane, and blood was collected for serum analysis by cardiac puncture and exsanguination followed by cervical dislocation to ensure death. Serum was isolated by centrifugation, flash frozen in liquid nitrogen, and stored at −80° C. The left and right hind limbs as well as the vertebral column were collected for analysis. Hind limbs were removed and disarticulated. Tibiae and femora were cleaned of soft tissue and fixed in a solution of 10% formalin. After 48 hours, the bones were placed in 70% ethanol. The vertebral column was frozen at −20° C. to ensure microcomputed tomography (microCT) analysis of the fifth lumbar vertebrae (L5).
(§2) Serum Chemistry: Serum samples were analyzed for circulating markers of bone formation and resorption. ELISA kits for osteocalcin (Biomedical Technologies, Inc., Stoughton, Mass.) and tartrate-resistant acid phosphatase (TRAP5b) (Immunodiagnostic Systems, Inc., Fountain Hills, Az.), respectively. The analyses were performed according to protocols provided by the manufacturers.

osteocalcin = experiment: Serum osteocalcin ELISA, irradiated mice treated with risedronate (Example 4b); format: in vivo; settings: 2 Gy irradiated mice; risedronate 30 μg/kg every other day
Protocol: as §1, §2

osteoclasts = experiment: Histological analysis of osteoclast surface (TRAP staining), proximal tibia trabecular bone (Example 4c); format: in vivo, mice; settings: one week after exposure, but not two and three weeks; 2 Gy; risedronate 30 micrograms/kg every other day; versus non-irradiated control
Excerpt: Osteoclast Identification: Following tomographic analysis, the left tibiae were decalcified using a formic acid solution (Immunocal; Decal Chemical Corp., Talman, N.Y.) and embedded in a glycol methacrylate resin (ImmunoBed™; Polysciences, Wasrrington, Pa.). The samples were cut into sagittal sections with a thickness of 3 μm. A subset of each group (n=5-6) was selected for analysis. Each slide was stained with TRAP using a commercial kit (Sigma, St. Louis, Mo.) to identify osteoclasts and counterstained with hematoxylin, Radiographs assessed the earliest time point of complete decalcification. […] Osteoclast presence was determined by tartrate resistant acid phosphatase (TRAP) staining of the slides using a commercial kit (Sigma; St. Louis, Mo.) and then counterstaining with hematoxylin (Sigma).
Histomorphometric evaluation was performed from captured micrographs (200×) throughout the metaphysis, starting approximately 0.25 mm distal from the growth plate (in order to exclude the primary spongiosa) and extending a further 0.5 mm. Bone histomorphometric parameters for the proximal metaphysis of the tibia were measured as described in the report of the American Society of Bone and Mineral Research (ASBMR) Histomophometry Nomenclature Committee (22). Surface measurements were quantified relative to total bone surface (BS). […]

[1] = test system: female Sprague-Dawley rats; experiment: Rat model, clinically-modeled radiation dose regimen with risedronate, tibia microCT (Example 5); format: in vivo; settings: risedronate 0.1 mg/kg/week subcutaneously; for Conn. Dens. (connectivity density) / SMI (structural model index) / Tb. N. (trabecular number) / Tb. Sp. (trabecular spacing) / Tb. Th (trabecular thickness) / BV/TV (bone volume fraction): mean ± SEM
Excerpt: The right hindlimb from twenty-one week old female Sprague-Dawley rats were irradiated using a clinical irradiator (linear accelerator; LINAC; Wake Forest University). The dose applied was 16 Gy given as 4 fractions of 4 Gy each. This dose is the equivalent in terms of biological impacts on the hip during the course of radiation therapy for cancer, as determined by radiation biophysicists. Irradiations (all four total) were provided over the course of two weeks. Animals either received no radiation, radiation only, or radiation+risedronate injection (0.1 mg/kg/week subcutaneously). Administration of risedronate was provided one day prior to the first irradiation, then three times per week until sacrifice.
Animals were sacrificed two and four weeks after exposure. Hindlimbs were removed, and the tibiae were examined via microCT for several parameters. Meanings of the following trabecular parameters as they relate with conditions of increased resorption or atrophy are provided in Example 3 Methods Section: BV/TV; connectivity density (Conn.Dens.); trabecular thickness (Tb.Th.); trabecular number (Tb.N); and trabecular spacing (Tb.S.) were again determined. All measurements were taken within a region extending 1 mm distal to the growth plate.

rats = settings: 0.1 mg/kg/week administered subcutaneously; cited from earlier work
aged rats = aged rats (9 months then allowed to mature 60 days); 0.02 or 0.04 mg/kg/wk; cited from earlier work
OVX rat = settings: OVX rats; administered orally; cited from earlier work
minipigs = settings: 2.5 vs 0.5 mg/kg/day oral; cited from earlier work
[2] = realistic order stated in text; 1% assumed for dose conversion; cited from earlier work
female B6 mice = experiment: High dose zoledronate against radiation-induced bone loss in mice, microCT (Example 6); format: in vivo; settings: for radiation-induced bone loss: 12-week-old mice, 2 Gy whole body X-rays, single 10 mg/kg dose of zoledronate, microCT 2 weeks after irradiation, 10 mg/kg
Protocol: The antiresorptive bisphosphonate zoledronate was selected as representative of the class of antiresorptive agents and was tested, at high doses of 10 mg/kg, for its ability to prevent radiation-induced bone loss.
12-week-old female B6 mice were either 1) not irradiated and treated with a placebo injection, 2) irradiated with a 2 Gy whole body dose of X-rays and treated with a placebo injection, or 3) irradiated with a 2 Gy whole body dose of X-rays and treated with a single 10 mg/kg dose of […]. Bones were collected and examined by microCT 2 weeks after irradiation and zoledronate injection.

[3] = cited from earlier work
[4] = risedronate 30 μg/kg subcutaneous every other day
[5] = 2 Week Examination, 16 Gy (4 x 4 Gy)
[6] = 4 Week Examination, 16 Gy (4 x 4 Gy)

In the case of O=P(O)(O)C(O)(Cc1cccnc1)P(=O)(O)O [risedronate], the “radiation-induced bone loss at the 5th lumbar vertebra (FIG. 13)” value (female C57BL/6 mice; [4]) is reported as “prevents rapid radiation-induced bone loss”, the “radiation-induced bone loss at the distal femur (FIG. 12)” value (female C57BL/6 mice; [4]) is reported as “prevents rapid radiation-induced bone loss” and the “radiation-induced bone loss (proximal tibia, distal femur and 5th lumbar vertebra)” value (female C57BL/6 mice; risedronate 30 μg/kg/injection subcutaneous every other day, 1, 2 and 3 weeks) is reported as “prevents radiation-induced bone loss”. The “serum TRAP5b levels (marker for osteoclast activity)” value (TRAP5b) was “reduced at all time points”, the “serum TRAP5b levels (marker for osteoclast activity)” value (TRAP5b; listed as Risedronate) was “reduced TRAP5b levels at all time points” and the “serum osteocalcin levels (marker for bone formation)” value (osteocalcin) was “trended to decrease levels”. The “osteoclast surface, proximal tibia trabecular bone” value (osteoclasts) was “greater osteoclast surface”, the “Conn. Dens. (connectivity density)” value [1, 5] was 95.4 ± 4.4^b l/mm^3 and the “SMI (structural model index)” value [1, 5] was 0.83 ± 0.07^e. The “Tb. N. (trabecular number)” value [1, 5] was 4.02 ± 0.11^g, the “Tb. Sp. (trabecular spacing)” value [1, 5] was 216 ± 8^g μm and the “Tb. Th (trabecular thickness)” value [1, 5] was 90.1 ± 1.4^b. The “BV/TV (bone volume fraction)” value ([1]; 2 Week Examination, right hindlimb 16 Gy (4 fractions of 4 Gy), tibia microCT) was 31.9 ± 0.79^e %, the “effect on radiation-induced trabecular deterioration relative with control” value ([1]; 2 weeks, rats, 16 Gy) was “largely mitigated these changes” and the “sparing effect on connectivity of the trabeculae compared with the differences after only receiving radiation” value ([1]; 2 weeks, rats) was 12%. The “BV/TV (bone volume fraction)” value [1, 6] was 34.4 ± 1.2^b,^f %, the “Conn. Dens. (connectivity density)” value [1, 6] was 109.3 ± 4.6^e l/mm^3 and the “SMI (structural model index)” value [1, 6] was 0.68 ± 0.12^a,^f. The “Tb. N. (trabecular number)” value [1, 6] was 4.37 ± 0.09^f, the “Tb. Sp. (trabecular spacing)” value [1, 6] was 193 ± 5^f μm and the “Tb. Th (trabecular thickness)” value [1, 6] was 90.9 ± 1.1^c,^h. The “evidence of trabecular deterioration via microCT relative with control” value ([1]; Week 4, rats, 16 Gy) was “has disappeared by Week 4”, the “bone volume and fraction in GIO” value (rats) was “increased bone volume and fraction by reducing turnover” and the “histomorphometric changes in the tibial diaphysis” value (aged rats) was “no histomorphometric changes”. The “oral doses at which improvement in bone mineral density and preservation of microarchitecture generally occurred” value (OVX rat) was “greater than 0.5 mg/kg/day”, the “preserving architecture, comparison of oral doses” value (minipigs) was “more pronounced in animal models (minipigs) using 2.5 mg/kg/day than 0.5 mg/kg/day” and the oral bioavailability [2] was 0.5-0.7%.

In the case of O=P(O)(O)C(O)(Cn1ccnc1)P(=O)(O)O [zoledronate], the radiation-induced bone loss (female B6 mice) is reported as “prevents radiation-induced bone loss”, the radiation-induced bone loss (female B6 mice; listed as Zoledronate) is reported as “prevented the bone loss” and the “bone mass versus untreated, non-irradiated levels” value (female B6 mice; growing mice, 2 Gy, single 10 mg/kg zoledronate, 2 weeks) is reported as “increased to greater than untreated, non-irradiated levels”.

In the case of “Denosumab: fully human anti-RANKL antibody that binds RANK ligand and blocks its binding to RANK, formerly AMG162 (Amgen)”, the “effect of low doses on markers for bone formation” value ([3]; 0.01 mg/kg and 0.03 mg/kg) is given as “reduced markers for bone formation, but for only temporary periods”, the duration of efficacy ([3]; 0.3, 1.0 and 3.0 mg/kg) is given as over 30 days and the “performance compared with standard 90 mg dose of pamidronate” value ([3]; 0.3, 1.0 and 3.0 mg/kg) is given as “performed similarly”.
